The nature of series [1]: collision cross section (TWIMS, N2) of ion [M+H]+; higher = larger gas-phase ion cross section. The conditions noted are these: ionization: ESI positive; LC: HILIC, pH 3.0 ammonium formate. The method, then:
(§1)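 Reference standards (20-100 uM) were separated by HILIC UPLC (BEH HILIC, 45 °C): acidic pH 3.0 ammonium formate/formic acid for ESI+ and basic pH 9.0 ammonium acetate/ammonia for ESI-. They were analysed on a Synapt G2-Si traveling-wave IMS-QTOF with nitrogen drift gas (WH 30 V; WV 800 m/s in ESI+ and 1000 m/s in ESI-).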

Series [2] is described as follows: collision cross section (TWIMS, N2) of ion [M+H-H2O]+; higher = larger gas-phase ion cross section. The conditions noted are these: ionization: ESI positive; LC: HILIC, pH 3.0 ammonium formate. The method, then:
(§2)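 Reference standards (20-100 uM) were separated by HILIC UPLC (BEH HILIC, 45 °C): acidic pH 3.0 ammonium formate/formic acid for ESI+ and basic pH 9.0 ammonium acetate/ammonia for ESI-. They were analysed on a Synapt G2-Si traveling-wave IMS-QTOF with nitrogen drift gas (WH 30 V; WV 800 m/s in ESI+ and 1000 m/s in ESI-). CCS (TWCCSN2, Å2) was calibrated with Major Mix IMS/TOF and LockCCS leucine enkephalin; inter-day RSD was <1%.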

The nature of series [3]: collision cross section (TWIMS, N2) of ion [M+Na]+; higher = larger gas-phase ion cross section. The following applies: ionization: ESI positive; LC: HILIC, pH 3.0 ammonium formate. The protocol:
as §2

The nature of series [4]: retention time on BEH HILIC column (20 min gradient, 0.4 mL/min); higher = later elution. The conditions noted are these: LC: HILIC. The protocol:
as §1

Series [5] is described as follows: collision cross section (TWIMS, N2) of ion [M-H]-; higher = larger gas-phase ion cross section. The following applies: ionization: ESI negative; LC: HILIC, pH 9.0 ammonium acetate. The method, then: as §1
Series [6] is described as follows: collision cross section (TWIMS, N2) of ion [M+Na-2H]-; higher = larger gas-phase ion cross section. The conditions noted are these: ionization: ESI negative; LC: HILIC, pH 9.0 ammonium acetate. The protocol:
as §2

The nature of series [7]: collision cross section (TWIMS, N2) of ion [M]+; higher = larger gas-phase ion cross section. The following applies: ionization: ESI positive; LC: HILIC, pH 3.0 ammonium formate. The protocol:
as §2

Setting [8] is: ionization: ESI positive, pH 3.0 ammonium formate.
The mark [9] stands for this setting: ionization: ESI negative, pH 9.0 ammonium acetate.

`Nc1ccccc1C(=O)C[C@H](N)C(=O)O` [L-kynurenine]: the collision cross section came out at 146.07 Å² in series [1], 140.8 Å² in series [2] and 149.75 Å² in series [3]. Also, the “retention time on BEH HILIC column” value in series [4] (setting [8]) stood at 5.74 min.
Turning to `C[C@@H](CCC(=O)O)CC(=O)O` [3-methyladipic acid], the values for the collision cross section in series [3], in series [5] and in series [6] were 136.22 Å², 131.84 Å² and 135.93 Å², respectively. Further, the “retention time on BEH HILIC column” value turned out to be 0.93 min in series [4] (setting [9]) and 1.05 min in series [4] (setting [8]).
Turning to `C/C(=C\C(=O)O)CC(=O)O` [3-methylglutaconic acid], the collision cross section in series [3] is listed as 132.11 Å²; in series [6] it was 131.48 Å². Moreover, the “retention time on BEH HILIC column” value turned out to be 1.75 min in series [4] (setting [9]) and 1.45 min in series [4] (setting [8]).
Regarding `O=C(O)c1ccc(C(=O)O)o1` [2,5-furandicarboxylic acid], in series [6], the collision cross section turned out to be 129.41 Å². In addition, the “retention time on BEH HILIC column” value in series [4] (setting [9]) came out at 7.28 min.
For the compound `Cc1ncc(C[n+]2csc(CCO)c2C)c(N)n1` [Thiamine], the collision cross section in series [7] is given as 162.11 Å²; in series [5], 164.85 Å². Also, the figures for the “retention time on BEH HILIC column” value in series [4] (setting [9]) and in series [4] (setting [8]) were 8.94 min and 8.96 min, respectively.
With `O=C(O)Cc1cccc(O)c1` [3-hydroxyphenylacetic acid], the figures for the collision cross section in series [3] and in series [6] were 139.98 Å² and 132.19 Å², respectively. The “retention time on BEH HILIC column” value in series [4] (setting [9]) and in series [4] (setting [8]) was 0.99 min in each case.
For `CC(C)(CO)[C@@H](O)C(=O)NCCC(=O)O` [Pantothenic acid], the collision cross section worked out at 145.63 Å² in series [1], 144.55 Å² in series [2], 150.01 Å² in series [3] and 146.44 Å² in series [5]. In addition, the “retention time on BEH HILIC column” value in series [4] (setting [9]) is 2.08 min; in series [4] (setting [8]), 1.96 min.
For the compound `Cc1cccc(O)c1` [m-cresol], the collision cross section amounted to 126.19 Å² in series [1], 123.87 Å² in series [2] and 122.73 Å² in series [5]. Moreover, the entries for the “retention time on BEH HILIC column” value in series [4] (setting [9]) and in series [4] (setting [8]) were 0.75 min and 0.77 min, respectively.
Consider `O=C(O)[C@@H]1C[C@@H](O)CN1` [Hydroxyproline], for which the collision cross section turned out to be 125.85 Å² in series [1], 123.91 Å² in series [2] and 126.62 Å² in series [5]. The “retention time on BEH HILIC column” value in series [4] (setting [9]) is 7.55 min; in series [4] (setting [8]) it was 7.47 min.
For the compound `CCCCCCCC/C=C\CCCCCCCC(=O)O` [Oleic acid], the collision cross section in series [3] was 181.57 Å²; in series [5] it was 179.19 Å²; in series [6], 184.54 Å². Also, the figures for the “retention time on BEH HILIC column” value in series [4] (setting [9]) and in series [4] (setting [8]) were 0.75 min and 0.73 min, respectively.

The record behind these values is the supplement of paper PMC11127212.
